In patent publication US8097708B2, “10a-Azalide compound” (Taisho Pharmaceutical Co., Ltd., priority 2006, dated 2012):
Values after ≈ are worked out from the molar mass of the structure shown.

Assays:
Assay in all cases: In vitro antibacterial activity, microbroth dilution method (NCCLS method)
Format in all cases: cell-based
S. pneumoniae 205 = settings: Streptococcus pneumoniae; bacteria symbol C = S. pneumoniae 205; read-out: MIC values (minimum inhibitory concentration)
Description: (§1) In vitro antibacterial activities of the compounds of the present invention against various test bacteria were measured according to the microbroth dilution method (NCCLS method). As test compounds, the compounds of Examples 7, 23, 114, 126, 131, 210, 214, 231, 257, 261, 287, 363, 366, 563 and Comparative agent 1: clarithromycin were used. The results are shown as MIC values (minimum inhibitory concentration, μg/ml) in Table 21.

S. pneumoniae ATCC 49619 = settings: Streptococcus pneumoniae, ATCC49619; bacteria symbol B = S. pneumoniae ATCC 49619; read-out: MIC values (minimum inhibitory concentration)
Description: as §1

H. influenzae ATCC 43095 = settings: Haemophilus influenzae, ATCC43095; bacteria symbol A = H. influenzae ATCC 43095; read-out: MIC values (minimum inhibitory concentration)
Description: as §1

SMILES | MIC (S. pneumoniae 205) [µg/mL] | MIC (S. pneumoniae ATCC 49619) [µg/mL] | MIC (H. influenzae ATCC 43095) [µg/mL]
CC[C@H]1OC(=O)[C@H](C)[C@@H](O[C@H]2C[C@@](C)(OC)[C@@H](O)[C@H](C)O2)[C@H](C)[C@@H](O[C@@H]2O[C@H](C)C[C@H](N(C)C)[C@H]2O)[C@](C)(OC)C[C@@H](C)C(=O)[C@H](C)[C@@H](O)[C@]1(C)O [Comparative agent 1, clarithromycin] | > 128 | 0.03 (≈ 0.0401 µM) | 4 (≈ 5.35 µM)
CO[C@]1(C)C[C@H](O[C@H]2[C@H](C)[C@@H](O[C@@H]3O[C@H](C)C[C@H](N(C)C)[C@H]3O)[C@@](C)(OC)C[C@@H](C)[C@H](O)[C@H](C)N(C)C(C)C(C)OC(=O)[C@@H]2C)O[C@@H](C)[C@@H]1O (stereo partly drawn) [Example 261] | 64 (≈ 89 µM) | 0.12 (≈ 0.167 µM) | 4 (≈ 5.56 µM)
